US20240158446A1, “CYCLIC COMPOUND HAVING SELECTIVE INHIBITORY ACTION ON KRAS OVER HRAS AND NRAS” (CHUGAI SEIYAKU KABUSHIKI KAISHA, priority 2021, published 2024)
Like-named read-outs stand apart in the source and are kept apart here. Blank lines part the entries; values can stand above or below the compound they belong to. Where a SMILES comes first, the peptide text is derived from it. Bridges are numbered along the chain shown (N, C = ends). [ ]: non-standard residue; d: D form. The star is where a group is joined. hPhe(3-Cl-4-CF3) = N[C@@H](CCc1ccc(C(F)(F)F)c(Cl)c1)C(=O)O; NPrPhe(4-CF3) = CCCN[C@@H](Cc1ccc(C(F)(F)F)cc1)C(=O)O; NMeGly(cPent) = CN[C@H](C(=O)O)C1CCCC1; NMeD = CN[C@@H](CC(=O)O)C(=O)O; NMeL = CN[C@@H](CC(C)C)C(=O)O; Oxazolidin(3-yl) = C1CN(*)CO1; Ac5c = NC1(C(=O)O)CCCC1; Sar = CNCC(=O)O

Experiments:
[1] = molecular target: GDP-bound NRAS wild-type protein (Homo sapiens, UniProt P01111); assay: Binding to NRAS by surface plasmon resonance (SPR), Single Cycle Kinetics; details: for NRAS/KRAS (ratio of KD value for NRAS to KD value for KRAS): SPR, GDP-bound NRAS wild-type protein vs GDP-bound KRAS wild-type protein
Chain of GDP-bound NRAS wild-type protein (P01111 whole entry): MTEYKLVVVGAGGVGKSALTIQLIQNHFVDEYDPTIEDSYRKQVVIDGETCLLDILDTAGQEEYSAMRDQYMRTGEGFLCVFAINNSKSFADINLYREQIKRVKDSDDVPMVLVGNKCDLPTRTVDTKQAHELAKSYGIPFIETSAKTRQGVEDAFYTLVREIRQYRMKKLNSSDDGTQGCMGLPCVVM

[2] = test system: human lung cancer strain NCI-H441;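 further: cell proliferation inhibition after four days measured by CellTiter-Glo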
[3] = molecular target: GDP-bound HRAS wild-type protein (Homo sapiens, UniProt P01112); assay: Binding to HRAS by surface plasmon resonance (SPR), Single Cycle Kinetics; details: for HRAS/KRAS (ratio of KD value for HRAS to KD value for KRAS): SPR, GDP-bound HRAS wild-type protein vs GDP-bound KRAS wild-type protein
Chain of GDP-bound HRAS wild-type protein (P01112 whole entry): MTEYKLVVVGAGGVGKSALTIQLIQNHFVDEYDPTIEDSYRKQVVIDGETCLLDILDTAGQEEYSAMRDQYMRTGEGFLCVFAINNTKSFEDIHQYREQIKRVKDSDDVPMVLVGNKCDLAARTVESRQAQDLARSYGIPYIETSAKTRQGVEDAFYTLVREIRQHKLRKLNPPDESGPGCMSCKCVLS

[4] = molecular target: GDP-bound KRAS wild-type protein (Homo sapiens, UniProt P01116); assay: Binding to KRAS by surface plasmon resonance (SPR), Single Cycle Kinetics; details: GDP-bound KRAS wild-type protein, read-out: KRAS KD
Chain of GDP-bound KRAS wild-type protein (P01116 whole entry): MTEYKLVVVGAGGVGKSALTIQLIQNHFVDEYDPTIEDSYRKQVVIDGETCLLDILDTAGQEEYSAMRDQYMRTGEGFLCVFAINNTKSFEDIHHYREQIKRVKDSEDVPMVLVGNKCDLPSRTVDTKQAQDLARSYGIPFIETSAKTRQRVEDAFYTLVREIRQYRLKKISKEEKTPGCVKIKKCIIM

[5] = SPR, Single Cycle Kinetics, 1:1 binding model
[6] = SPR Single Cycle Kinetics, 1:1 binding model

SMILES: CCO[C@@H]1C[C@H]2C(=O)NC3(CCC3)C(=O)N(C)[C@@H](C3CCCC3)C(=O)N(C)[C@H](C(=O)N(C)C)CC(=O)N(C)[C@@H](CC3CCCC3)C(=O)N[C@@H]([C@@H](C)CC)C(=O)N(C)CC(=O)N(C)[C@H]3C/C=C\CCN(C3=O)[C@@H](Cc3ccc(C(F)(F)F)cc3)C(=O)N(C)CC(=O)N[C@@H](CCc3ccc(C(F)(F)F)c(OC)c3)C(=O)N2C1 [PP1248, (2S,8S,12R,14S,20S,23S,27S,30S,36S,38Z)-20-cyclopentyl-27-(cyclopentylmethyl)-12-ethoxy-8-[2-[3-methoxy-4-(trifluoromethyl)phenyl]ethyl]-N,N,4,19,22,26,32,35-octamethyl-30-[(1S)-1-methylpropyl]-3,6,9,15,18,21,25,28,31,34,42-undecaoxo-2-[[4-(trifluoromethyl)phenyl]methyl]spiro[1,4,7,10,16,19,22,26,29,32,35-undecazatricyclo[34.5.1.0^10,14]dotetracont-38-ene-17,1′-cyclobutane]-23-carboxamide]
NRAS/KRAS (ratio of KD value for NRAS to KD value for KRAS) ([1]; KD ratio class): A (a compound having 10 or more and less than 20 is denoted as A)
IC50 [2]: 7.3 nM
HRAS/KRAS (ratio of KD value for HRAS to KD value for KRAS) ([3]; KD ratio class): A (a compound having 10 or more and less than 20 is denoted as A)
Kd [4, 5]: 0.069 nM

SMILES: CC[C@H](C)[C@@H]1NC(=O)[C@H](CC2CC2)N(C)C(=O)C[C@@H](C(=O)N(C)C)N(C)C(=O)[C@H](C2CCCC2)N(C)C(=O)C2(CCC2)NC(=O)[C@H](CC(F)F)N(C)C(=O)[C@H](CCc2cc(F)c(C(F)(F)F)c(F)c2)NC(=O)CN(C)C(=O)[C@H](Cc2ccc(C(F)(F)F)cc2)N2CC/C=C\C[C@@H](C2=O)N(C)C(=O)CN(C)C1=O [PP1403]
NRAS/KRAS (ratio of KD value for NRAS to KD value for KRAS) ([1]; KD ratio class): AA (a compound having 20 or more is denoted as AA)
IC50 [2]: 111 nM
HRAS/KRAS (ratio of KD value for HRAS to KD value for KRAS) ([3]; KD ratio class): A (a compound having 10 or more and less than 20 is denoted as A)
Kd [4, 5]: 0.6 nM

SMILES: CCO[C@@H]1C[C@H]2C(=O)NC3(CCC3)C(=O)N(C)[C@@H](C3CCCC3)C(=O)N(C)[C@H](C(=O)N(C)C)CC(=O)N(C)[C@@H](CC(C)C)C(=O)N[C@@H]([C@@H](C)CC)C(=O)N(C)CC(=O)N(C)[C@H]3C/C=C\CCN(C3=O)[C@@H](Cc3ccc(C)cc3)C(=O)N(C)CC(=O)N[C@@H](CCc3cc(F)c(C(F)(F)F)c(F)c3)C(=O)N2C1 [PP1414, (2S,8S,12R,14S,20S,23S,27S,30S,36S,38Z)-20-cyclopentyl-8-[2-[3,5-difluoro-4-(trifluoromethyl)phenyl]ethyl]-12-ethoxy-27-isobutyl-N,N,4,19,22,26,32,35-octamethyl-30-[(1S)-1-methylpropyl]-3,6,9,15,18,21,25,28,31,34,42-undecaoxo-2-(p-tolylmethyl)spiro[1,4,7,10,16,19,22,26,29,32,35-undecazatricyclo[34.5.1.0^10,14]dotetracont-38-ene-17,1′-cyclobutane]-23-carboxamide]
NRAS/KRAS (ratio of KD value for NRAS to KD value for KRAS) ([1]; KD ratio class): A (a compound having 10 or more and less than 20 is denoted as A)
IC50 [2]: 4.4 nM
HRAS/KRAS (ratio of KD value for HRAS to KD value for KRAS) ([3]; KD ratio class): B (a compound having 3 or more and less than 10 is denoted as B)
Kd [4, 5]: 0.074 nM

SMILES: CCO[C@@H]1C[C@H]2C(=O)NC3(CCC3)C(=O)N(C)[C@@H](C(CC)CC)C(=O)N(C)[C@H](C(=O)N(C)C)CC(=O)N(C)[C@@H](CC3CC3)C(=O)N[C@@H]([C@@H](C)CC)C(=O)N(C)CC(=O)N(C)[C@H]3C/C=C\CCN(C3=O)[C@@H](CC3CCC(F)(F)CC3)C(=O)N(C)CC(=O)N[C@@H](CCc3cc(F)c(C(F)(F)F)c(F)c3)C(=O)N2C1 [PP1429]
NRAS/KRAS (ratio of KD value for NRAS to KD value for KRAS) ([1]; KD ratio class): AA (a compound having 20 or more is denoted as AA)
IC50 [2]: 38.7 nM
HRAS/KRAS (ratio of KD value for HRAS to KD value for KRAS) ([3]; KD ratio class): A (a compound having 10 or more and less than 20 is denoted as A)
Kd [4, 5]: 0.52 nM

SMILES: CCC(CC)[C@H]1C(=O)N(C)[C@H](C(=O)N(C)C)CC(=O)N(C)[C@@H](COC)C(=O)N[C@@H]([C@@H](C)CC)C(=O)N(C2CC2)CC(=O)N(C)[C@H]2C/C=C\CCN(C2=O)[C@@H](Cc2ccc(C)cc2)C(=O)N(C)CC(=O)N[C@@H](CCc2ccc(Cl)c(Cl)c2)C(=O)N2C[C@H](OC(C)C)C[C@H]2C(=O)NC2(CC(C)(C)C2)C(=O)N1C (stereo in doubt) [PP2509]
NRAS/KRAS (ratio of KD value for NRAS to KD value for KRAS) [1]: AA (a compound having 20 or more is denoted as AA)
IC50 [2]: 91.3 nM
HRAS/KRAS (ratio of KD value for HRAS to KD value for KRAS) [3]: A (a compound having 10 or more and less than 20 is denoted as A)
Kd ([4]; SPR, Single Cycle Kinetics): 2.6 nM

SMILES: CCCOC[C@H]1C(=O)N[C@@H]([C@@H](C)CC)C(=O)N(C)CC(=O)N(C)[C@H]2C/C=C\CCN(C2=O)[C@@H](CC2CCC(F)(F)CC2)C(=O)N(C)CC(=O)N[C@@H](CCc2cc(F)c(C(F)(F)F)c(F)c2)C(=O)N2C[C@@H](C)C[C@H]2C(=O)NC2(CC(C)(C)C2)C(=O)N(C)[C@@H](C(CC)CC)C(=O)N(C)[C@H](C(=O)N(C)C)CC(=O)N1C [PP2490]
NRAS/KRAS (ratio of KD value for NRAS to KD value for KRAS) [1]: AA (a compound having 20 or more is denoted as AA)
IC50 [2]: 162 nM
HRAS/KRAS (ratio of KD value for HRAS to KD value for KRAS) [3]: A (a compound having 10 or more and less than 20 is denoted as A)
Kd ([4]; SPR, Single Cycle Kinetics): 1.7 nM

SMILES: CC[C@H](C)[C@@H]1NC(=O)[C@H](CC2CC2)N(C)C(=O)C[C@@H](C(=O)N(C)C)N(C)C(=O)[C@H](C2CCCC2)N(C)C(=O)C2(CCC2)NC(=O)[C@H](CCC(F)F)N(C)C(=O)[C@H](CCc2cc(F)c(C(F)(F)F)c(F)c2)NC(=O)CN(C)C(=O)[C@H](Cc2ccc(C(F)(F)F)cc2)N2CC/C=C\C[C@@H](C2=O)N(C)C(=O)CN(C)C1=O [PP1402]
NRAS/KRAS (ratio of KD value for NRAS to KD value for KRAS) ([1]; KD ratio class): A (a compound having 10 or more and less than 20 is denoted as A)
IC50 [2]: 82 nM
HRAS/KRAS (ratio of KD value for HRAS to KD value for KRAS) ([3]; KD ratio class): A (a compound having 10 or more and less than 20 is denoted as A)
Kd [4, 5]: 0.3 nM

Further lines, with some results ahead:

IC50 [2]: 5.2 nM
Kd [4, 6]: 0.15 nM
SMILES: CCCN1C(=O)CN(C)C(=O)CN(C)C(=O)[C@H]([C@@H](C)CC)NC(=O)[C@H](CC(C)C)N(C)C(=O)C[C@@H](C(=O)N2CCOC2)N(C)C(=O)[C@H](C2CCCC2)N(C)C(=O)C2(CCCC2)NC(=O)[C@@H]2CCCN2C(=O)[C@H](CCc2ccc(C(F)(F)F)c(Cl)c2)NC(=O)CN(C)C(=O)[C@@H]1Cc1ccc(C(F)(F)F)cc1 [PP0174] ([NMeL]I[Sar][Sar][NPrPhe(4-CF3)][Sar][hPhe(3-Cl-4-CF3)]P[Ac5c][NMeGly(cPent)][NMeD]-{Oxazolidin(3-yl)}; lactam N-11)
NRAS/KRAS (ratio of KD value for NRAS to KD value for KRAS) [1]: B (a compound having 3 or more and less than 10 is denoted as B)
HRAS/KRAS (ratio of KD value for HRAS to KD value for KRAS) [3]: B (a compound having 3 or more and less than 10 is denoted as B)

IC50 [2]: 7.5 nM
Kd [4, 6]: 0.061 nM
SMILES: CCOC[C@H]1C(=O)N[C@@H]([C@@H](C)CC)C(=O)N(C)CC(=O)N(C)[C@H]2C/C=C\CCN(C2=O)[C@@H](Cc2ccc(C(F)(F)F)cc2)C(=O)N(C)CC(=O)N[C@@H](CCc2ccc(C(F)(F)F)c(OC)c2)C(=O)N2C[C@H](OCC)C[C@H]2C(=O)NC2(CC(C)(C)C2)C(=O)N(C)[C@@H](CC(C)(C)C)C(=O)N(C)[C@H](C(=O)N(C)C)CC(=O)N1C [PP2736]
NRAS/KRAS (ratio of KD value with respect to GDP-bound NRAS wild-type protein to KD value with respect to KRAS) ([1]; SPR KD ratio NRAS/KRAS, class symbols): A (a compound having 10 or more and less than 20 is denoted as A)
HRAS/KRAS (ratio of KD value with respect to GDP-bound HRAS wild-type protein to KD value with respect to KRAS) ([3]; SPR KD ratio HRAS/KRAS, class symbols): A (a compound having 10 or more and less than 20 is denoted as A)

IC50 [2]: 43.4 nM
Kd ([4]; SPR, Single Cycle Kinetics): 1.5 nM
SMILES: CCO[C@@H]1C[C@H]2C(=O)NC3(CC(C)(C)C3)C(=O)N(C)[C@@H](C(CC)CC)C(=O)N(C)[C@H](C(=O)N(C)C)CC(=O)N(C)[C@@H](COC)C(=O)N[C@@H]([C@@H](C)CC)C(=O)N(C)CC(=O)N(C)[C@H]3C/C=C\CCN(C3=O)[C@@H](CC3CCCCC3)C(=O)N(C)CC(=O)N[C@@H](CCc3ccc(C(F)(F)F)c(OC)c3)C(=O)N2C1 [PP2452]
NRAS/KRAS (ratio of KD value for NRAS to KD value for KRAS) [1]: A (a compound having 10 or more and less than 20 is denoted as A)
HRAS/KRAS (ratio of KD value for HRAS to KD value for KRAS) [3]: A (a compound having 10 or more and less than 20 is denoted as A)

IC50 [2]: 10.3 nM
Kd ([4]; SPR, Single Cycle Kinetics): 0.17 nM
SMILES: CC[C@H](C)[C@@H]1NC(=O)[C@H](C(C)C)N(C)C(=O)C[C@@H](C(=O)N(C)CC)N(C)C(=O)[C@H](C2CCCC2)N(C)C(=O)C2(CCC2)NC(=O)[C@@H]2C[C@H](C)CN2C(=O)[C@H](CCc2cc(F)c(C(F)(F)F)c(F)c2)NC(=O)CN(C)C(=O)[C@H](Cc2ccc(C(F)(F)F)cc2)N2CC/C=C\C[C@@H](C2=O)N(C)C(=O)CN(C)C1=O [PP2078]
NRAS/KRAS (ratio of KD value for NRAS to KD value for KRAS) [1]: AA (a compound having 20 or more is denoted as AA)
HRAS/KRAS (ratio of KD value for HRAS to KD value for KRAS) [3]: A (a compound having 10 or more and less than 20 is denoted as A)
